Results as given in PubChem BioAssay AID1418 (Emory University Molecular Libraries Screening Center, 2008).
The source made the active and inactive calls. The rule behind the calls is not given here.

Target: Induced myeloid leukemia cell differentiation protein Mcl-1 (Homo sapiens) (UniProt Q07820)
Experiment: blockers of Bid binding to Mcl-1 – biochemical, TR-FRET, dose response (AID 1418)
Settings: Mcl-1/Bid peptide binding, TR-FRET (europium/Dy647), 2 hr

Induced myeloid leukemia cell differentiation protein Mcl-1 (Homo sapiens), sequence (Q07820 whole entry, looked up): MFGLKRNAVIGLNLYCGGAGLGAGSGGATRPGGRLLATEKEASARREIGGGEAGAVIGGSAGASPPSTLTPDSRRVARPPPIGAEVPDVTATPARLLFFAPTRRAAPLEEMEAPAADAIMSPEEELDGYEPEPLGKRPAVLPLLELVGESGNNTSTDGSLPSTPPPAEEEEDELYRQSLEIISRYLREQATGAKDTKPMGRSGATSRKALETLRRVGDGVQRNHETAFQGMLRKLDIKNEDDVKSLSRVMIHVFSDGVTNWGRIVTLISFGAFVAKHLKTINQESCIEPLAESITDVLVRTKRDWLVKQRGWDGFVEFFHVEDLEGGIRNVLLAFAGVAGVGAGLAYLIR

Structure (SMILES)	IC50
CC1(c2cccc3ccccc23)NC(=O)N(CC(=O)NC2CCS(=O)(=O)C2)C1=O (stereo not drawn)	> 54 µM (inactive)
CCc1ccc(NC(=S)NC2CC3CCC(C2)N3Cc2ccco2)cc1 (stereo not drawn)	> 54 µM (inactive)
O=C(O)CCCC(=O)Nc1cccc(C(=O)Nc2ccccc2C(=O)O)c1	> 54 µM (inactive)
O=C(O)c1cccc(N/N=C/C2=C(Cl)c3cc(Cl)ccc3SC2)c1	8.44 µM
O=C(O)CCCN1C(=O)/C(=C/c2cn(-c3ccccc3)nc2-c2cccs2)SC1=S	6.58 µM
Cc1cc(N2CC(C)OC(C)C2)n2cc(-c3ccccc3)nc2n1 (stereo not drawn)	> 54 µM (inactive)
CCOC(=O)C1CCN(CC(=O)Nc2c(C(=O)OC)[nH]c3cccc(Cl)c23)CC1	> 54 µM (inactive)
Oc1ccc(/C=N/Nc2ccnc3cc(Cl)ccc23)c(O)c1	6.69 µM
Cc1ccc(CNC(=O)c2ccc3nc4[nH]c5ccccc5c4nc3c2)cc1	6.82 µM
COC(=O)c1cc(OC)c(OC)cc1NCC(=O)Nc1ccc(C)cc1	> 54 µM (inactive)
CC1=NN(c2ccccc2)C(=O)/C1=C\c1cn(-c2ccccc2)nc1C	> 54 µM (inactive)
O=C(CCCN1C(=O)c2ccccc2C1=O)Nc1ccccc1	> 54 µM (inactive)
COc1cccc(CNC(=O)C2CCN(S(=O)(=O)N3CCCCC3)CC2)c1	> 54 µM (inactive)
CC12CCC(C(=O)Nc3ccccc3-n3cccc3)(CC1=O)C2(C)C (stereo not drawn)	> 54 µM (inactive)
CCOC(=O)c1cccc(NC(=O)CCNS(=O)(=O)c2ccc3c(c2)CCN3C(=O)CC)c1	> 54 µM (inactive)
COc1ccc(/C=N/NS(=O)(=O)c2ccccc2)cc1OC(=O)c1ccc(C)cc1	> 54 µM (inactive)
O=C(NC1CCCCC1)C(c1ccc2ncccc2c1)N(Cc1ccccc1)C(=O)c1ccc2c(c1)OCCO2 (stereo not drawn)	> 54 µM (inactive)
FC(F)(F)c1cccc(N/N=C/c2ccccc2)c1	> 54 µM (inactive)
O=C(O)COc1ccccc1C(Nc1cccnc1)c1cc(Cl)c2cccnc2c1O (stereo not drawn)	2.52 µM
CCOC(=O)CSc1nc(C2CC2)cc(-c2ccc(Cl)cc2)c1C#N	> 54 µM (inactive)
CCCC(=O)Nc1ccc2oc(-c3cccnc3)nc2c1	> 54 µM (inactive)
O=C(NC(=S)Nc1ccc2c(c1)OCCO2)c1ccccc1F	> 54 µM (inactive)
CC(=O)Cc1cc(O)c2ccccc2c1OC(=O)c1ccc(Br)cc1	> 54 µM (inactive)
COC(=O)/C(=N/Nc1ccccc1)N1CCCc2ccccc21	> 54 µM (inactive)
Clc1cccc(Cl)c1CON/C=N/c1ncnc2sccc12	> 54 µM (inactive)

Structure (SMILES)	IC50
CN(C)c1ccc(/C=c2\sc3nc(-c4ccccc4)nn3c2=O)cc1	5.15 µM
Cc1ccccc1C(=O)NC(=S)Nc1sc2c(c1C#N)CCCC2	> 54 µM (inactive)
Cc1ccc(C(=O)NC(C)c2nc3ccccc3n2CC(=O)Nc2c(C)cc(C)cc2C)cc1 (stereo not drawn)	0.45 µM
CC(=O)c1ccc(NC(=S)NNC(=O)c2ccncc2)cc1	> 54 µM (inactive)
CCOC(=O)NC(=O)/C(C#N)=C/c1ccc(N(C)C)cc1	> 54 µM (inactive)
COc1ccc(NC(=O)Cn2nnc(-c3ccccc3NC(=O)c3ccco3)n2)cc1	6.22 µM
CCc1ccc(CCC(=O)Nc2ccc(C)cc2C)o1	> 54 µM (inactive)
CCS(=O)(=O)N1CCN(C(C)CCc2ccccc2)CC1 (stereo not drawn)	> 54 µM (inactive)
O=C(/C=C/N1CCOCC1)c1coc2ccccc12	> 54 µM (inactive)
O=C(Cn1[nH]c(=O)c2ccccc2c1=O)OCC(=O)N1CCc2ccccc2C1	> 54 µM (inactive)
O=C(ONc1ccc(N=NC(=O)c2ccccc2O)cc1)c1ccccc1	inactive
CC1=NOC(=O)/C1=C/c1ccc(-c2ccc(Cl)cc2)o1	8.87 µM
COc1cc(/C=C2/SC(=S)NC2=O)ccc1OS(=O)(=O)c1ccc(C)cc1	9.94 µM
Cc1ccc2[nH]c(=O)c(-c3nc4cc(C)ccn4c3NCc3ccco3)cc2c1	12.6 µM
O=C1c2ccccc2C(=O)N1Cc1nc2ccccc2c(=O)n1-c1cccnc1	> 54 µM (inactive)
O=C(Cn1nc(C(=O)O)c2ccccc2c1=O)Nc1ccc2c(c1)C(=O)c1ccccc1C2=O	2.93 µM
Cc1cccc(OCc2nc(C#N)c(NCc3ccc4c(c3)OCO4)o2)c1	> 54 µM (inactive)
Cc1ccc(-n2cccc2/C=C2\C(=N)N3N=C(c4ccco4)SC3=NC2=O)cc1	3.46 µM
COc1ccc(/C=C2\C(=O)NC(=S)N2C(=O)c2ccc(F)cc2)cc1	8.97 µM
COc1ccccc1CNC(=O)CC(NS(=O)(=O)c1ccc(C)cc1)c1ccco1 (stereo not drawn)	> 54 µM (inactive)
O=c1c2ccccc2nc(/C=C/c2cccnc2)n1CCc1ccccc1	0.63 µM
COc1ccc2[nH]c3c(c2c1)CCn1c-3nc2sc(C(=O)Nc3ccccc3)c(C)c2c1=O	1.89 µM
COC(=O)c1sccc1NC(=O)c1cc(C)on1	> 54 µM (inactive)
NC(=S)n1[nH]c(-c2ccc([N+](=O)[O-])cc2)c(N=Nc2ccc(Cl)cc2)c1=O	0.56 µM
O=[N+]([O-])c1ccc(-c2cn(-c3ccc(Cl)cc3)c(=S)[nH]2)cc1	> 54 µM (inactive)

Structure (SMILES)	IC50
Cc1ccc(Cn2nc(C)c(NC(=O)CSc3nc4c(c(C(F)(F)F)n3)CCc3ccccc3-4)c2C)cc1	1.91 µM
C=CCOC(=O)c1cc(-c2ccc(/C=C3\C(=O)NC(=O)C(C#N)=C3C)o2)ccc1Cl	0.53 µM
CCOC(=O)c1c(C)oc2cc(Br)c(OC(=O)N3CCOCC3)cc12	> 54 µM (inactive)
O=C(CSc1nc(-c2ccccc2)cc(C(F)(F)F)n1)N1CCOCC1	> 54 µM (inactive)
CC(C)NC(=O)C1CCCN(S(=O)(=O)c2ccc(-n3cnnn3)cc2)C1 (stereo not drawn)	> 54 µM (inactive)
O=[N+]([O-])c1cc(Cl)cc(/C=N/NC(=S)Nc2cc(S(=O)(=O)N3CCOCC3)ccc2Cl)c1O	7.3 µM
COc1ccc(C(=O)/C=C/c2ccc(N3CCCCC3)c([N+](=O)[O-])c2)cc1	> 54 µM (inactive)
CCCCOc1ccc(CC2C(=O)N(C)C(=O)N(C)C2=O)cc1	> 54 µM (inactive)
CC(C)(C)CC(=O)O/N=C(\N)c1ccccn1	> 54 µM (inactive)
O=C(C1=C[C@@H](c2csc3ccccc23)C[C@@H](OCc2ccc(CO)cc2)O1)N1CCN(Cc2ccc3c(c2)OCO3)CC1	> 54 µM (inactive)
CC(CCC(=O)Nc1nncs1)C(=O)O (stereo not drawn)	> 54 µM (inactive)
COc1ccc(-c2cc3nc4ccccc4n3c(N)c2C#N)cc1	2.76 µM
O=c1/c(=C\c2cc([N+](=O)[O-])cc([N+](=O)[O-])c2O)sc2nc3ccccc3n12	1.07 µM
COc1cccc2c(=O)c(C/C=C(/C)Cl)c(C)[nH]c12	> 54 µM (inactive)
COc1cc(/C=C2/SC(=S)N(CC3CCCO3)C2=O)ccc1O (stereo not drawn)	> 54 µM (inactive)
O=C(Nc1ccccn1)c1ccc([N+](=O)[O-])cc1Cl	> 54 µM (inactive)
CCOc1ccccc1NC(=O)CN(C)S(=O)(=O)c1cccc2nsnc12	> 54 µM (inactive)
O=c1c2cc(Cl)ccc2nc(-c2ccccc2Cl)n1O	> 54 µM (inactive)
c1ccc2c(c1)nnn2-c1ncnc2sc3c(c12)CCCC3	> 54 µM (inactive)
COc1ccc(-c2nc3ccccc3c(=O)n2CCOc2cccc(C)c2C)cc1	> 54 µM (inactive)
CSc1nc(SCC(=O)O)c2sc3nc(-c4ccccc4)c4c(c3c2n1)CCC4	1.53 µM
C=CCn1c(O)c(C(C)=NCC2CCCO2)c(=O)[nH]c1=O (stereo not drawn)	0.48 µM
CCNC(=O)c1cc(S(=O)(=O)N(C)C)c(Cl)cc1Cl	> 54 µM (inactive)
CSc1cccc(NC(=O)CN(C)S(=O)(=O)c2ccccc2)c1	> 54 µM (inactive)
COc1cc(-c2nc(-c3ccc(NC(=O)c4ccc(Br)o4)cc3)no2)cc(OC)c1OC	1.81 µM

Structure (SMILES)	IC50
O=C(CN1CCN(CCN2C(=O)c3cccc4cccc(c34)C2=O)CC1)c1ccc(F)cc1	> 54 µM (inactive)
C#CCOCCOCCOCCNc1nc(N2CCN(C(=O)[C@H](CCCCN)n3cc(C(N)[C@H](C)CC)nn3)CC2)nc(N2CCN(C(=O)[C@H](CCC(=O)O)n3cc(C(N)[C@H](C)CC)nn3)CC2)n1 (stereo partly drawn)	1.93 µM
O=C(CSCc1ccccc1)NCCCN1CCOCC1	> 54 µM (inactive)
CC(Oc1ccc(Cl)cc1Cl)C(=O)N(C)c1ccccc1 (stereo not drawn)	> 54 µM (inactive)
COC(=O)c1cc2sc(Cl)cc2n1CC(=O)Nc1cccc(SC)c1	> 54 µM (inactive)
CCOC(=O)Nc1ccc2c(c1)N(C(=O)OCCN(C)C)c1ccccc1CC2	> 54 µM (inactive)
N#Cc1cccc(NC(=O)CSc2ccc3c4c(cccc24)C(=O)c2ccccc2-3)c1	2.65 µM
CCCOP(=O)(OCCC)C(NC(=O)c1ccccc1)=C(Cl)Cl	0.53 µM
CCN(CC)CCNC(=O)/C(=C/c1cn(C)c2ccccc12)NC(=O)c1ccc(OC)c(OC)c1	> 54 µM (inactive)
Cc1nc(NC(=O)c2ccccc2)sc1-c1csc(Nc2ccc(C(=O)O)cc2)n1	9.88 µM
COCCCNCC(=O)Nc1sc(C)c(C)c1C(=O)OC	> 54 µM (inactive)
COc1ccc(C2(C)NC(=O)N(CC(=O)NCCC3=CCCCC3)C2=O)cc1OC (stereo not drawn)	> 54 µM (inactive)
O=C(CSc1nnc(SCc2ccc(Cl)cc2)s1)N/N=C/c1c[nH]c2ccccc12	0.44 µM
COc1cccc(-c2csc(N3CCN(C(=S)Nc4cccc(Cl)c4)CC3)n2)c1	> 54 µM (inactive)
CC(C)n1c(SCC(=O)Nc2ccc3c(c2)OCO3)nc2c1c(=O)n(C)c(=O)n2C	> 54 µM (inactive)
Cc1nnc(Sc2cc(C(=O)NC3CC3)c3ccccc3n2)s1	> 54 µM (inactive)
CN(C)S(=O)(=O)c1cccc(NC(=O)c2cc3c(=O)n4ccccc4nc3s2)c1	> 54 µM (inactive)
CC1C(=O)CCN(C(C)C)C1C (stereo not drawn)	> 54 µM (inactive)
O=C(/C=C\Nc1ccc(S(=O)(=O)Nc2ncccn2)cc1)c1cccc2ccccc12	> 54 µM (inactive)
Oc1c(Cl)cc(Cl)cc1Sc1cc(Cl)cc(Cl)c1O	1.67 µM
C=CCn1cc(/C=N/NC(=O)COc2cccc3cccnc23)c2ccccc21	3.38 µM
Cn1c2c(c(=O)n(C)c1=O)C1c3cc(Cl)ccc3OCC1CO2 (stereo not drawn)	> 54 µM (inactive)
O=C(O)COc1ccccc1C(Nc1ccccn1)c1cc(Cl)c2cccnc2c1O (stereo not drawn)	5.42 µM
